Measured values taken from ChEMBL document CHEMBL5506047, “Impact of Combinatorial Histone Modifications on Acetyllysine Recognition by the ATAD2 and ATAD2B Bromodomains” (J Med Chem, 2024).

Columns and labels:
[1] = molecular target: T1, ATPase family AAA domain-containing protein 2B (Homo sapiens, UniProt Q9ULI0); assay: Binding affinity to human ATAD2B BRD assessed as dissociation constant by isothermal titration calorimetry
T1 sequence (Q9ULI0 whole entry): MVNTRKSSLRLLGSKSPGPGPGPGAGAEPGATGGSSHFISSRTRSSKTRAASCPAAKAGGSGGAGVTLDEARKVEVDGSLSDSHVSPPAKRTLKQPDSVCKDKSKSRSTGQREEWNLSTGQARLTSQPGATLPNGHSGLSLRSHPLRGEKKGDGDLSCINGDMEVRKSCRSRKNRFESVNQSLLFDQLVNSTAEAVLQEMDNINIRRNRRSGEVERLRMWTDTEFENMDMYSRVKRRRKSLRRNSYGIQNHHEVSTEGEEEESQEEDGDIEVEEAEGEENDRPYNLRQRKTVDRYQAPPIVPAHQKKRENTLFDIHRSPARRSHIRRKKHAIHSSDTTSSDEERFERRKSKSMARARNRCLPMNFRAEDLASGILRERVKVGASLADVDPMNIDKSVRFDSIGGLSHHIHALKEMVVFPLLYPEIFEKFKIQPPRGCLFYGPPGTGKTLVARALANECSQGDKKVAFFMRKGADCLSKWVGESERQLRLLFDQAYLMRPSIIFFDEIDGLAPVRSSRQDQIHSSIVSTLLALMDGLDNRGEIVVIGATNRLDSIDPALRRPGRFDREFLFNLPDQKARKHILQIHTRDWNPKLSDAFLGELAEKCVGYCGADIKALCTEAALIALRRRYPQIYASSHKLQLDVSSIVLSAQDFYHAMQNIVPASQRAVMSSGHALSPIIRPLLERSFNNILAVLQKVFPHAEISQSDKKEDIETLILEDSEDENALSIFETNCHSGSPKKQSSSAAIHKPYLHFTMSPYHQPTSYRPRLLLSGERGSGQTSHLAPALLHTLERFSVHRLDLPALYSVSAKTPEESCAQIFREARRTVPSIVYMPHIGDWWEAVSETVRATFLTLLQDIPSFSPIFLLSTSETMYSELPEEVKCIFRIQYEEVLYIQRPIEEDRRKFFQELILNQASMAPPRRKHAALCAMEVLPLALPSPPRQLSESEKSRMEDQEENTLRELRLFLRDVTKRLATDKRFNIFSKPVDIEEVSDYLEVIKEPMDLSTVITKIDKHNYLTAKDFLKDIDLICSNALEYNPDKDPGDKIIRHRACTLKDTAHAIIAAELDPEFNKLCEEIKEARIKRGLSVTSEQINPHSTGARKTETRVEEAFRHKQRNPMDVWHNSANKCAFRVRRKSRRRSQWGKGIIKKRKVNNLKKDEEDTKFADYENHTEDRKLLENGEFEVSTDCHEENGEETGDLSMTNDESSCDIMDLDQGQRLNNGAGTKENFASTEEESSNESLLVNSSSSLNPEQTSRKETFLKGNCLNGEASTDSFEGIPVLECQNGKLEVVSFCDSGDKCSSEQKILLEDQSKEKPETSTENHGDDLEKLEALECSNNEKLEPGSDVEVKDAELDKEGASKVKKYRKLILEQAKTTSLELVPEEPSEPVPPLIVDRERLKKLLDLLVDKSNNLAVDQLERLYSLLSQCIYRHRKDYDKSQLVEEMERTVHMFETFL

[2] = molecular target: T2, ATPase family AAA domain-containing protein 2 (Homo sapiens, UniProt Q6PL18); assay: Binding affinity to human ATAD2 BRD assessed as dissociation constant by isothermal titration calorimetry
T2 sequence (Q6PL18 whole entry): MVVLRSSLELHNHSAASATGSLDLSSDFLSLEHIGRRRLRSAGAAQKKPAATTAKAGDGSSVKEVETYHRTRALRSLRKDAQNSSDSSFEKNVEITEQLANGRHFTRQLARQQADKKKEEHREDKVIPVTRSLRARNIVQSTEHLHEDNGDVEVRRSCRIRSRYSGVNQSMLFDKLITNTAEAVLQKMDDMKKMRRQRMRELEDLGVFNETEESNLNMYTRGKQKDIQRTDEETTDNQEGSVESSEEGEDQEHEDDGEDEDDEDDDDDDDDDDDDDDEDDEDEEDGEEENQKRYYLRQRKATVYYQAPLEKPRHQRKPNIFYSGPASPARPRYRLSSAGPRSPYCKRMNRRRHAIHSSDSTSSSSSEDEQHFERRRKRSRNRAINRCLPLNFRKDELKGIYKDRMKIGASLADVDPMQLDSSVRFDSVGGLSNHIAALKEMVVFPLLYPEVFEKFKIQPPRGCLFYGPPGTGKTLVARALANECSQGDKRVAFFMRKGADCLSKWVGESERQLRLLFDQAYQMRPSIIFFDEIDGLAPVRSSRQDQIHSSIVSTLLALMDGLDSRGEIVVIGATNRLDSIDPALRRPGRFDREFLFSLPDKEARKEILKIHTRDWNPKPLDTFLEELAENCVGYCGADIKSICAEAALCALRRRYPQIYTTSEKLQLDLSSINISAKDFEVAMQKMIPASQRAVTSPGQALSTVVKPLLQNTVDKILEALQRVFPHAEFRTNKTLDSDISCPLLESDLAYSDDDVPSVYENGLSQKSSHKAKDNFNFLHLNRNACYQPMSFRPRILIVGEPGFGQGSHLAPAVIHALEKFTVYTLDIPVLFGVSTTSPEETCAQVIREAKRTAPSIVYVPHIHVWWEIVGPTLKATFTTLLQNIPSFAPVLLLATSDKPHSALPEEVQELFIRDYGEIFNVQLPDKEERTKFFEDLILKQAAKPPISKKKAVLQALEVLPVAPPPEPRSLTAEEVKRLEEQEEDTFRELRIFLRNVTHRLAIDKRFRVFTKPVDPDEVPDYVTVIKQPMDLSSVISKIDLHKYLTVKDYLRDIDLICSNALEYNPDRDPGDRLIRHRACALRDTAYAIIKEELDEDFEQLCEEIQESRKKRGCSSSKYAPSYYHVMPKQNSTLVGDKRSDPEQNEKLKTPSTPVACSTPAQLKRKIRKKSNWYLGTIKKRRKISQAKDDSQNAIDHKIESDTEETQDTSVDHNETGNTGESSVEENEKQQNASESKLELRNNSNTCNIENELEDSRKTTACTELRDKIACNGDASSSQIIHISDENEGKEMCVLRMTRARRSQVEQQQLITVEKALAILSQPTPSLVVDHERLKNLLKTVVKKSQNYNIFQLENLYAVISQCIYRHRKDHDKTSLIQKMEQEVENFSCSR

Kd [1]	Kd [2]	Molecule
Not Active	Not Active	H-SGRGKTGGKARAKAKSR-OH
Not Active	Not Active	CC(=O)NCCCC[C@H](NC(=O)[C@H](CO)NC(=O)[C@H](CCCNC(=N)N)NC(=O)CNC(=O)[C@@H](N)CO)C(=O)NCC(=O)NCC(=O)N[C@@H](CCCCN)C(=O)NCC(=O)N[C@@H](CC(C)C)C(=O)NCC(=O)N[C@@H](CCCCN)C(=O)NCC(=O)NCC(=O)N[C@@H](C)C(=O)O
Not Active	Not Active	H-AGGKAGKDSGKAKTK-OH
Not Active	Not Active	CC(=O)NCCCC[C@H](NC(=O)[C@H](CC(=O)O)NC(=O)[C@H](CCCNC(=N)N)NC(=O)CNC(=O)[C@@H](N)CO)C(=O)NCC(=O)NCC(=O)N[C@@H](CCCCN)C(=O)NCC(=O)N[C@@H](CC(C)C)C(=O)NCC(=O)N[C@@H](CCCCN)C(=O)NCC(=O)NCC(=O)N[C@@H](C)C(=O)O
–	Not Active	H-AGGK(Ac)AGKDSGKAKTK-OH
Not Active	Not Active	H-AGGK(Ac)AGK(Ac)DSGKAKTK-OH
